Measured values published in patent publication US20070093460A1, “Methods of using selective 11beta-HSD inhibitors to treat gluocorticoid associated states” (priority 2005, published 2007).
Entries after “also recorded” stand apart in the source; their conditions may differ. Where two headings read alike, the source gives them in different places.

How the values were obtained:
11β-HSD1 Reductase [1] = target: T1, 11β-HSD1 Reductase (Rattus norvegicus, UniProt P16232); assay: 11β-HSD1 reductase assay in rat Leydig cell homogenates; conditions: for inhibitors of 11β-HSD1 reductase (summary in words): summary of the screening;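 on all read-outs here: rat Leydig cell homogenate incubated 20 min at 37 °C, pH 7.4, with tritiated 11-dehydro-corticosterone and 3 mM NADPH, product measured by HPLC, inhibition from triplicate dose–response curves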
Experimental: (§1) Each enzyme reaction (described below) was stopped by adding 750 μL MeOH. After centrifugation, an aliquot of supernatant was analyzed by HPLC using a DuPont Zorbax C8 column.
(§2) 11β-HSD1 dehydrogenase was assayed by incubating homogenates (13,000 cells equivalent) with 600 nM [^3H]-B (0.5 μCi) in the presence of 3 mM NADP, 50 mM Tris-HCl; pH 8.4 at 37° C. for 10 minutes in a total volume of 250 μL. 11β-HSD1 reductase was assayed by incubating homogenates (52,000 cells equivalent) with 600 nM [^3H]-11-dehydro-corticosterone in presence of 3 mM NADPH, 50 mM Tris-HCl; pH 7.4 at 37° C. for 20 minutes in a total volume of 250 μL.
(§3) Each concentration was tested in triplicate and the dose response curve, showing percentage inhibition versus log concentration of steroid was plotted. The data fitted a log-linear straight line.

11β-HSD2 = target: T2, 11β-HSD2 (Ovis aries, UniProt P50168); assay: 11β-HSD2 enzyme activity in sheep kidney microsomes; type: biochemical; conditions: for inhibitors of 11β-HSD2 (summary in words): summary of the screening
T2 construct: incubating sheep kidney microsomal fraction (6.5 μg protein) with 50 nM corticosterone; from tissue; host or cells: sheep kidney microsomal fraction
T2 sequence (P50168 1-427): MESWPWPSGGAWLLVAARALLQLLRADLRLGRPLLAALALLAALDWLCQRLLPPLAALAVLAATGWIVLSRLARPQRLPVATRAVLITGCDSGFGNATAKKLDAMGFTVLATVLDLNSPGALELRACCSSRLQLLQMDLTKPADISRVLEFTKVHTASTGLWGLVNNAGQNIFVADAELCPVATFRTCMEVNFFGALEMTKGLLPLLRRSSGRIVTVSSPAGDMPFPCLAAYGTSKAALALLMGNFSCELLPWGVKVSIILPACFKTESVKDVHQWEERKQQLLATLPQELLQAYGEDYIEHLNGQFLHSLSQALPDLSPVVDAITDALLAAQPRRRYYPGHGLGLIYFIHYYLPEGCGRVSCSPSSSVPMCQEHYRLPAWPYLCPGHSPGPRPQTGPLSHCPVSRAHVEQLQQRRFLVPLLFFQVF
Excerpt: The enzymatic reaction was termninated by addition of methanol and synthesis of 11-dehydro-corticosterone was quantitated by HPLC as described above.

11β-HSD1 Dehydrogenase [2] = target: T3, 11β-HSD1 Dehydrogenase (Rattus norvegicus, UniProt P16232); assay: 11β-HSD1 dehydrogenase assay in rat Leydig cell homogenates; type: biochemical; design: Freshly prepared rat Leydig cell homogenates were chosen since they provide a rich and reliable source of both 11β-HSD1 dehydrogenase and reductase; from tissue; host or cells: rat testicular Leydig cells, homogenate; conditions: for inhibitors of 11β-HSD1 dehydrogenase (summary in words): summary of the screening;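 on all read-outs here: tritiated corticosterone conversion by 11β-HSD1 dehydrogenase in Leydig homogenates with 3 mM NADP at pH 8.4, 37 °C for 10 min, products resolved by HPLC, inhibition relative to uninhibited enzyme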
Experimental: as §1, §2, §3

11β-HSD1 Dehydrogenase [3] = target: T3, 11β-HSD1 Dehydrogenase; assay: Table 1: inhibition of 11β-HSD1 dehydrogenase; type: biochemical; conditions: Table 1, inhibition in words
11β-HSD1 Reductase [4] = target: T1, 11β-HSD1 Reductase; assay: Table 1: inhibition of 11β-HSD1 reductase; type: biochemical; conditions: Table 1, inhibition in words
11β-HSD2 Dehydrogenase = target: T4, 11β-HSD2 Dehydrogenase (Ovis aries, UniProt P50168); assay: Table 1: inhibition of 11β-HSD2 dehydrogenase; type: biochemical; conditions: Table 1, inhibition in words
T4 sequence (P50168 1-427): T2 sequence (P50168 1-427)

[5] = read-out: Leydig Cell 11β-HSD1 Reductase [S] = 600 nM, rat Leydig cell homogenates, 600 nM 11-dehydro-corticosterone, progesterone and androgen derivatives
[6] = rat Leydig cell homogenates, 600 nM corticosterone, progesterone and androgen derivatives, read-out: Leydig Cell 11β-HSDl Dehydrogenase [S] = 600 nM
[7] = rat Leydig cell homogenates, 600 nM 11-dehydro-corticosterone, NADPH, corticosteroid series
[8] = read-out: Leydig Cell 11β-HSD1 Reductase [S]= 600 nM, rat Leydig cell homogenates, 600 nM 11-dehydro-corticosterone, NADPH, corticosteroid series
[9] = 11β-HSD2, sheep kidney microsomes, 50 nM corticosterone, NAD+, aldosterone, cortisol, corticosterone series
[10] = 11β-HSD2, sheep kidney microsomes, 50 nM corticosterone, NAD+, aldosterone, cortisol, corticosterone series, read-out: Dehydrogenase [S] = 50 nM
[11] = rat Leydig cell homogenates, 600 nM corticosterone, NADP, corticosteroid series
[12] = rat Leydig cell homogenates, 600 nM corticosterone, NADP, corticosteroid series, read-out: Leydig Cell 11β-HSD1 Dehydrogenase [S]= 600 nM

T1 sequence (P16232 whole entry): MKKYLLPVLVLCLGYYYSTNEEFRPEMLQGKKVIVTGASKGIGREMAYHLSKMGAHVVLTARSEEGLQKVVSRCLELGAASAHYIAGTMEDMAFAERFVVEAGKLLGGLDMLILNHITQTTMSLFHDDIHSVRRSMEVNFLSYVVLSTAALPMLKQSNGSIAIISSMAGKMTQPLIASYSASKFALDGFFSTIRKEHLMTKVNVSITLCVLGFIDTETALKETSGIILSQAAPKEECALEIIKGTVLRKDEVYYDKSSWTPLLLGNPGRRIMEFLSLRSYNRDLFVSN
T3 sequence (P16232 whole entry): as above

Row | Structure (SMILES) | IC50 (11β-HSD1 Reductase [1]) | 11β-HSD1 Dehydrogenase (11β-HSD1 Dehydrogenase [3]) | 11β-HSD1 Reductase (11β-HSD1 Reductase [4]) | Leydig Cell 11β-HSD1 Reductase [S]= 600 nM (11β-HSD1 Reductase [1]; [7]) | IC50 (11β-HSD2; [10]) | Leydig Cell 11β-HSD1 Dehydrogenase [S]= 600 nM (11β-HSD1 Dehydrogenase [2]; [11]) | IC50 (11β-HSD1 Dehydrogenase [2]; [12]) | other results
1 | C[C@]12CC[C@@H](O)C[C@H]1CC[C@@H]1[C@H]2C(=O)C[C@]2(C)C(=O)CC[C@@H]12 [11 -Keto-androsterone, 5α-Androstan-3a-ol-11,1 7-dione] | > 100 µM | No Inhibition | Selective Inhibitor | – | – | – | – | IC50 (11β-HSD2): > 10 µM; IC50 (11β-HSD1 Dehydrogenase [2]): > 100 µM
2 | C[C@]12CC[C@@H](O)C[C@H]1CC[C@@H]1[C@H]2[C@@H](O)C[C@]2(C)C(=O)CC[C@H]12 [3α,5β-reduced- 11β-OH- androstenedione] | – | Moderate Inhibitor | No Inhibition | – | – | – | – | 11β-HSD2 Dehydrogenase (11β-HSD2 Dehydrogenase): Potent Inhibitor (Non-Selective)
3 | CC(=O)[C@H]1CC[C@H]2[C@@H]3CC[C@@H]4C[C@H](O)CC[C@]4(C)[C@H]3[C@@H](O)C[C@]12C [11β-OH-pregnanolone, 5β-Pregnan-3α,11β-diol-20-one] | 80 µM | – | – | – | – | – | – | IC50 (11β-HSD2): > 10 µM; Sheep kidney 11β-HSD2 [S] = 50 nM (11β-HSD2; sheep kidney microsomes, corticosterone substrate, progesterone and androgen derivatives): inactive; IC50 (11β-HSD1 Dehydrogenase [2]): 30 µM
4 | C[C@]12CC[C@H](O)C[C@@H]1CC[C@H]1[C@@H]3CC[C@H](O)[C@@]3(C)CC(=O)[C@@H]12 [11 -Keto-3β,5α-TH-Testosterone] | – | – | – | – | – | – | – | IC50 (11β-HSD1 Reductase [1]; [5]): 0.65 µM; inhibitors of 11β-HSD1 reductase (summary in words) (11β-HSD1 Reductase [1]; listed as 11-Keto-3β,5α-TH-Testosterone): potent inhibitors; inhibitors of 11β-HSD1 reductase (summary in words) (11β-HSD1 Reductase [1]; listed as 11-keto-3β,5α-TH-testosterone): high potency; IC50 (11β-HSD2; sheep kidney microsomes, corticosterone substrate, progesterone and androgen derivatives, read-out: Sheep kidney 11β-HSD2 [S] = 50 nM): 8 µM; Leydig Cell 11β-HSDl Dehydrogenase [S] = 600 nM (11β-HSD1 Dehydrogenase [2]; rat Leydig cell homogenates, 600 nM corticosterone, progesterone and androgen derivatives): weak inhibitor; IC50 (11β-HSD1 Dehydrogenase [2]; [6]): 50 µM
5 | C[C@]12CC[C@@H](O)C[C@H]1CC[C@H]1[C@@H]3CC[C@H](C(=O)CO)[C@@]3(C)CC(=O)[C@@H]12 [3α,5β-TH- 11 -dehydro-corticosterone, 5β-Pregnan-3α,21-diol-11,20-dione] | – | – | – | inactive | > 10 µM | inactive | > 100 µM | IC50 (11β-HSD1 Reductase [1]; [8]): > 100 µM; Dehydrogenase [S] = 50 nM (11β-HSD2; [9]): inactive
6 | C[C@]12CC[C@@H](O)C[C@H]1CC[C@@H]1[C@H]2[C@@H](O)C[C@]2(C=O)[C@@H](C(=O)CO)CC[C@@H]12 [3α,5α-TH-Aldosterone, 5α-Pregnan-3α,11β,21-triol-20-one-18-al] | > 100 µM | Moderate Inhibitor | No Inhibition | inactive | 0.5 µM | – | 25 µM | inhibitors of 11β-HSD2 (summary in words) (11β-HSD2; listed as 3α,5α-TH -aldosterone): potent inhibitors; inhibitors of 11β-HSD2 (summary in words) (11β-HSD2; listed as 3α,5α-TH-aldosterone): high potency; 11β-HSD2 Dehydrogenase (11β-HSD2 Dehydrogenase): Potent Inhibitor
7 | C[C@]12CC[C@@H](O)C[C@H]1CC[C@@H]1[C@@H]2C(=O)C[C@]2(C)C(=O)CC[C@@H]12 [11 -Keto-etiocholanolone] | – | – | – | – | – | – | – | IC50 (11β-HSD1 Reductase [1]; [5]): > 100 µM; IC50 (11β-HSD1 Dehydrogenase [2]; [6]): > 100 µM
8 | C[C@]12CC[C@@H](O)C[C@@H]1CC[C@@H]1[C@@H]2[C@@H](O)C[C@]2(C)[C@@H](O)CC[C@@H]12 [11β-OH-androstanediol, 5α-Androstan-3α,11β,17β-triol] | 11.5 µM | – | – | – | – | – | – | IC50 (11β-HSD2): 4.5 µM; IC50 (11β-HSD1 Dehydrogenase [2]): 5 µM; inhibitors of 11β-HSD1 dehydrogenase (summary in words) (11β-HSD1 Dehydrogenase [2]): potent inhibitors; also recorded: high potency
9 | C[C@H](CCC(=O)O)[C@H]1CC[C@H]2[C@@H]3[C@H](O)C[C@@H]4C[C@H](O)CC[C@]4(C)[C@H]3CC[C@]12C [chenodeoxycholic acid] | – | Selective inhibitor | No Inhibition | – | – | – | – | 11β-HSD2 Dehydrogenase (11β-HSD2 Dehydrogenase): No Inhibition
10 | C[C@]12CC[C@@H](O)C[C@@H]1CC[C@@H]1[C@@H]2[C@@H](O)C[C@]2(C)C(=O)CC[C@@H]12 [11β-OH-androsterone, 5α-Androstan-3ct,11β-diol-17-one] | > 100 µM | – | – | – | – | – | – | IC50 (11β-HSD2): > 10 µM; IC50 (11β-HSD1 Dehydrogenase [2]): > 100 µM
11 | C[C@]12CC[C@@H](O)C[C@H]1CC[C@@H]1[C@@H]2[C@@H](O)C[C@@]2(C)[C@H]1CC[C@]2(O)C(=O)CO [3α,5β-TH-Cortisol, 5β-Pregnan-3α,11β,17α,21-tetrol-20-one] | > 100 µM | – | – | inactive | > 10 µM | inactive | > 100 µM | Dehydrogenase [S] = 50 nM (11β-HSD2; [9]): inactive
12 | C[C@]12CC[C@@H](O)C[C@H]1CC[C@@H]1[C@H]2C(=O)C[C@]2(C)[C@@H](O)CC[C@@H]12 [3α,5α-reduced-11-keto-testosterone] | – | No Inhibition | Selective Inhibitor | – | – | – | – | –
13 | C[C@]12CC[C@@H](O)C[C@@H]1CC[C@@H]1[C@@H]2[C@@H](O)C[C@@]2(C)[C@H]1CC[C@]2(O)C(=O)CO [3α,5α-TH-Cortisol, 5α-Pregnan-3α,11β,17α,21-tetrol-20-one] | > 100 µM | – | – | inactive | 8 µM | inactive | 14 µM | –
14 | C[C@]12CC[C@@H](O)C[C@H]1CC[C@@H]1[C@@H]2[C@@H](O)C[C@]2(C=O)[C@@H](C(=O)CO)CC[C@@H]12 [3α,5β-TH-Aldosterone, 5β-Pregnan-3α,11β,21-triol-20-one-18-al] | – | – | – | inactive | > 10 µM | inactive | > 100 µM | IC50 (11β-HSD1 Reductase [1]; [8]): > 100 µM; Dehydrogenase [S] = 50 nM (11β-HSD2; [9]): inactive
15 | C[C@]12CC[C@@H](O)C[C@H]1CC[C@@H]1[C@@H]2[C@@H](O)C[C@]2(C)C(=O)CC[C@@H]12 [11β-OH-etiocholanolone] | – | – | – | – | – | – | – | IC50 (11β-HSD1 Reductase [1]; [5]): > 100 µM; IC50 (11β-HSD1 Dehydrogenase [2]; [6]): > 100 µM
16 | C[C@]12CC[C@@H](O)C[C@H]1CC[C@@H]1[C@@H]2[C@@H](O)C[C@]2(C)[C@@H](C(=O)CO)CC[C@@H]12 [3α,5β-TH-Corticosterone, 5β-Pregnan-3α,11β,21-triol-20-one] | > 100 µM | – | – | inactive | > 10 µM | inactive | > 100 µM | Dehydrogenase [S] = 50 nM (11β-HSD2; [9]): inactive
17 | C[C@]12CCC(=O)C=C1CC[C@@H]1[C@@H]2[C@@H](O)C[C@]2(C=O)[C@@H](C(=O)CO)CC[C@@H]12 [Aldosterone, 4-Pregnen-11,21-diol-3,20-dione-18-al, reference compound] | > 100 µM | – | – | inactive | > 10 µM | inactive | > 100 µM | Dehydrogenase [S] = 50 nM (11β-HSD2; [9]): inactive
18 | CC(=O)[C@H]1CC[C@@H]2[C@@H]3CCC4=CC(=O)CC[C@]4(C)[C@@H]3[C@@H](O)C[C@]12C [11β-OH-Progesterone, 4-Pregnen-11β-ol-3,20-dione] | > 100 µM | Potent Inhibitor (Non-Selective) | No Inhibition | – | – | – | – | Leydig Cell 11β-HSD1 Reductase [S]= 600 nM (11β-HSD1 Reductase [1]; rat Leydig cell homogenates, 600 nM 11-dehydro-corticosterone, progesterone and androgen derivatives): inactive; IC50 (11β-HSD1 Dehydrogenase [2]; [6]): 5.6 µM; inhibitors of 11β-HSD1 dehydrogenase (summary in words) (11β-HSD1 Dehydrogenase [2]): potent inhibitors; also recorded: high potency; inhibitors of 11β-HSD1 dehydrogenase (summary in words) (11β-HSD1 Dehydrogenase [2]; listed as 11β-hydroxy-progesterone): potently inhibit
19 | C[C@]12CC[C@@H](O)C[C@H]1CC[C@@H]1[C@@H]2C(=O)C[C@@]2(C)[C@H]1CC[C@]2(O)C(=O)CO [3α,5β-TH-Cortisone, 5β-Pregnan-3α, 17α,21-triol-11,20-dione] | 60 µM | – | – | – | – | – | > 100 µM | –
20 | C[C@]12CC[C@@H](O)C[C@@H]1CC[C@@H]1[C@@H]2C(=O)C[C@@]2(C)[C@H]1CC[C@]2(O)C(=O)CO [3α,5α-TH- Cortisone, 5α-Pregnan-3α,17α,21-triol-11,20-dione] | 4.3 µM | – | – | – | – | – | > 100 µM | –
